The record followed here is ChEMBL document CHEMBL6109142 (J Med Chem, 2025).

Activity calls are given as the source filed them. The calls are words filed in the database; no cut-off is given here.

One data set concerns Calu-3. Description: Cytotoxicity against human Calu-3 cells assessed as cell viability at 10 uM measured after 72 hrs by luminescence based Cell-Titer-Glo assay. Type of data set: toxicity. As to conditions: calu-3, 72 h.
Data set [1] deals with SARS-CoV-2. Description: Antiviral activity against SARS-CoV-2 EG.5.1 infected in human Calu-3 cells assessed as reduction in residual intracellular nucleocapsid value at 1 uM preincubated with cells for 3 hrs followed by viral infection and measured after 48 hrs by immunostaining based analysis relative to control. Type of data set: functional, Severe acute respiratory syndrome coronavirus 2. The note with it: time 51 hrs.

Data set [2] relates to SARS-CoV-2. The experiment in a line: Antiviral activity against SARS-CoV-2 EG.5.1 infected in human Calu-3 cells assessed as reduction in residual intracellular nucleocapsid value at 1 uM preincubated with cells for 3 hrs followed by viral infection and measured after 48 hrs by immunostaining based analysis. Type of data set: functional, organism-based. As to conditions: Severe acute respiratory syndrome coronavirus 2, time 51.0 hrs.

Data set [3] deals with T1, Transmembrane protease serine 2 (Homo sapiens, UniProt O15393). The experiment in a line: Inhibition of recombinant TMPRSS2 (unknown origin) extracted from baculovirus infected in Sf9 cells assessed as residual activity using Boc-QAR-AMC as substrate at 1 nM measured after 1 hr by fluorescence based analysis relative to control.
In data set [4] the target is T1, Transmembrane protease serine 2. The experiment in a line: Inhibition of recombinant TMPRSS2 (unknown origin) extracted from baculovirus infected in Sf9 cells using Boc-QAR-AMC as substrate measured after 1 hr by fluorescence based analysis.
In data set [5] the test system is SARS-CoV-2. The experiment in a line: Antiviral activity against SARS-CoV-2 pseudotyped with delta spike protein infected in human Calu-3 cells assessed as prevention of virus-like particle cellular entry at 300 nM preincubated with cells for 3 hrs followed by viral infection and measured after 72 hrs by ONE-Glo-Ex luciferase assay relative to control. The format is functional, Severe acute respiratory syndrome coronavirus 2. The note with it: time 75 hrs.

Data set [6] concerns SARS-CoV-2. The experiment in a line: Antiviral activity against SARS-CoV-2 EG.5.1 infected in human Calu-3 cells preincubated with cells for 3 hrs followed by viral infection and measured after 48 hrs by immunostaining based analysis. Type of data set: functional, organism-based. As to conditions: Severe acute respiratory syndrome coronavirus 2, EG.5.1, Calu-3.
In a further data set the target is Procathepsin L (Homo sapiens, UniProt P07711). The experiment in a line: Inhibition of recombinant human C-terminal 6 his-tagged Cathepsin L assessed as inhibition constant using Z-LR-AMC as peptide substrate incubated for 1 hr by fluorescence based analysis.
In data set [7] the test system is SARS-CoV-2. The experiment in a line: Antiviral activity against SARS-CoV-2 JN.1 infected in human Calu-3 cells preincubated with cells for 3 hrs followed by viral infection and measured after 48 hrs by immunostaining based analysis. The note with it: Severe acute respiratory syndrome coronavirus 2, JN.1, Calu-3. Type of data set: functional, organism-based.
A further data set has as its target Coagulation factor X (Homo sapiens, UniProt P00742). Description: Inhibition of recombinant human C-terminal 10 his-tagged FXa extracted from baculovirus infected in Sf9 cells assessed as inhibition constant using Mca-RPKPVE-Nval-WRK(Dnp)-NH2 as substrate incubated for 1 hr by fluorescence based analysis.
Data set [8] is described as follows: Cytotoxicity against human Calu-3 cells assessed as cell viability measured after 72 hrs by luminescence based Cell-Titer-Glo assay. The format is toxicity.
For data set [9], the system named is SARS-CoV-2. The experiment in a line: Antiviral activity against SARS-CoV-2 pseudotyped with delta spike protein infected in human Calu-3 cells assessed as prevention of virus-like particle cellular entry at 300 nM preincubated with cells for 3 hrs followed by viral infection and measured after 72 hrs by ONE-Glo-Ex luciferase assay. The format is functional, organism-based. As to conditions: Severe acute respiratory syndrome coronavirus 2, time 75.0 hrs.

Data set [10] has as its target T1, Transmembrane protease serine 2. The experiment in a line: Inhibition of recombinant das TMPRSS2 (unknown origin) extracted from baculovirus infected in Sf9 cells assessed as inhibition constant using Boc-QAR-AMC as substrate measured after 1 hr by fluorescence based analysis.

T1 sequence (O15393 1-255 limits assumed): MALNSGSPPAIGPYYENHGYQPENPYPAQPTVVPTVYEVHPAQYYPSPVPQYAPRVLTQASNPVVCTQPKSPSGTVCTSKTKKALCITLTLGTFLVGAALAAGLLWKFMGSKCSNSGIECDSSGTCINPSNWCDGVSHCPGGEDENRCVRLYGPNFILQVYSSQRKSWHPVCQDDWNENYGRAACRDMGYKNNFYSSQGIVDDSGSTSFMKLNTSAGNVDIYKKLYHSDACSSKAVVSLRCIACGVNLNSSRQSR
T1 sequence (O15393 256-492 limits assumed): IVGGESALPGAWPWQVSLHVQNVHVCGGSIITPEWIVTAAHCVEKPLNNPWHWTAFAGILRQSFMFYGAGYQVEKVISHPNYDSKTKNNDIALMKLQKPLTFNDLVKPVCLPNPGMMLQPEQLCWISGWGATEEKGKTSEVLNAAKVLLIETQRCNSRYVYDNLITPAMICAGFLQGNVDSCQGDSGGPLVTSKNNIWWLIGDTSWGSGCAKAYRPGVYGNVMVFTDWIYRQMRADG
Coagulation factor X, sequence (P00742 41-179 limits assumed): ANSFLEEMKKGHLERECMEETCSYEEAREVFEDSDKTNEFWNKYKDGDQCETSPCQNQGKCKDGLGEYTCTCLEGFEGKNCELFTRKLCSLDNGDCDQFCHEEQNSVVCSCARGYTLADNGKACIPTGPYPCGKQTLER
Coagulation factor X, sequence (P00742 235-488 limits assumed): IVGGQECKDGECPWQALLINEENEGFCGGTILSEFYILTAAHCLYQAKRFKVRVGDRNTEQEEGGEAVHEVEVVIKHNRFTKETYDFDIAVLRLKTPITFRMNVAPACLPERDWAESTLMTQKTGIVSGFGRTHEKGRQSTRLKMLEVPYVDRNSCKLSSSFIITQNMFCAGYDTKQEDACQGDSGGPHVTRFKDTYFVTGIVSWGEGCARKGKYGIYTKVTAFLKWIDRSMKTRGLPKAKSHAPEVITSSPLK

Turning to `N=C(N)NCCCCC(=O)N[C@@H](CCC(N)=O)C(=O)N[C@@H](Cc1ccccc1)C(=O)N[C@@H](CCCNC(=N)N)C(=O)c1nccs1`, the Activity entry was “Non-toxic” with Calu-3, 14% in the data set with SARS-CoV-2 [1], 20% in [3] and 20% in the data set on SARS-CoV-2 [5]. For the same compound, the result in the data set with SARS-CoV-2 [2] was Active. In [4], the IC50 amounted to 0.74 nM.

On to `N=C(N)NCCCCC(=O)N[C@@H](Cc1ccccc1)C(=O)N[C@@H](Cc1ccccc1)C(=O)N[C@@H](CCCNC(=N)N)C(=O)c1nc2ccccc2s1`, for which the Activity entry is “Non-toxic” in the data set with Calu-3, 10% in [3] and 23% in the data set on SARS-CoV-2 [5]. In the data set with SARS-CoV-2 [2], the result was Active. For the same compound, the IC50 in [4] stood at 0.66 nM.

Consider `N=C(N)NCCCCC(=O)N[C@@H](CC(N)=O)C(=O)N[C@@H](Cc1ccccc1)C(=O)N[C@@H](CCCNC(=N)N)C(=O)c1nc2ccccc2s1`, for which the Activity entry is “Non-toxic” in the data set on Calu-3, 11% in data set [3] and 19% in the data set with SARS-CoV-2 [5]. Moreover, the outcome with SARS-CoV-2 [2] was Active. The half-inhibitory concentration (IC50) in data set [4] is 0.87 nM.

Regarding `CS(=O)(=O)N[C@@H](CCC(N)=O)C(=O)N[C@@H](Cc1ccccc1)C(=O)N[C@@H](CCCNC(=N)N)C(=O)c1nc2ccccc2s1`, the figures for the Activity entry (in the data set with Calu-3; in data set [3]; with SARS-CoV-2 [5]) were “Non-toxic”, 13% and 16%, respectively. For the same compound, the EC50 was 29.1 nM with SARS-CoV-2 [6] and 3.3 nM in the data set on SARS-CoV-2 [7]. For the same compound, the inhibition entry on Procathepsin L is “inactive”. In addition, the result in the data set on SARS-CoV-2 [2] was Active.

As to `N=C(N)NCCC[C@H](NC(=O)[C@H](Cc1ccccc1)NC(=O)[C@H](CCC(N)=O)NC(=O)CCO)C(=O)c1nc2ccccc2s1`, the Activity result was “Non-toxic” in the data set with Calu-3, 10% in [3] and 24% with SARS-CoV-2 [5]. Moreover, the result in the data set with SARS-CoV-2 [2] was Active. In addition, the concentration for half-maximal inhibition (IC50) in data set [4] came out at 1.4 nM.

On to `N=C(N)NCCCCC(=O)N[C@H](CCC(N)=O)C(=O)N[C@@H](Cc1ccccc1)C(=O)N[C@@H](CCCNC(=N)N)C(=O)c1nc2ccccc2s1`, for which the values for the Activity entry (with Calu-3; in data set [3]; with SARS-CoV-2 [5]) were “Non-toxic”, 28% and 15%, respectively. Moreover, the outcome in the data set with SARS-CoV-2 [2] was Active. Also, the half-inhibitory concentration (IC50) in data set [4] was 1.4 nM.

Consider `N=C(N)NCCC[C@H](NC(=O)[C@H](Cc1ccccc1)NC(=O)[C@@H]1CCC(=O)NCCCC(=O)N1)C(=O)c1nc2ccccc2s1`, for which the results for the Activity entry (in the data set with Calu-3; in data set [3]; in the data set with SARS-CoV-2 [5]) were “Non-toxic”, 3% and 20%, respectively. The outcome in the data set with SARS-CoV-2 [2] was Active. In addition, the IC50 in data set [4] turned out to be 1 nM.

In the case of `CS(=O)(=O)N[C@@H](CCC(N)=O)C(=O)N[C@@H](Cc1ccccc1)C(=O)N[C@@H](CCCNC(=N)N)C(=O)c1nccs1`, the figures for the Activity entry (in the data set on Calu-3; in data set [3]; in the data set with SARS-CoV-2 [5]) were “Non-toxic”, 11% and 14%, respectively. Also, the half-maximal effective concentration (EC50) in the data set with SARS-CoV-2 [6] amounted to 21.7 nM; in the data set on SARS-CoV-2 [7] it was 8.5 nM. Besides, on Coagulation factor X, the inhibition constant (Ki) was 9.2 nM. Further, the inhibition entry on Procathepsin L is “inactive”. For the same compound, the result in the data set with SARS-CoV-2 [2] was Active. Also, the IC50 in data set [4] came out at 0.87 nM. Besides, the CC50 at 72 h in data set [8] turned out to be 110000 nM.

Turning to `N=C(N)NCCCCC(=O)N[C@@H](CCC(N)=O)C(=O)N[C@@H](Cc1ccccc1)C(=O)N[C@@H](CCCNC(=N)N)C(=O)c1nc2ccccc2s1`, the Activity result in the data set on Calu-3 is “Non-toxic”; in [3] it was 16%; in the data set with SARS-CoV-2 [5], 13%. Moreover, the outcome with SARS-CoV-2 [2] was Active. Also, in data set [4], the IC50 turned out to be 1.4 nM.

As to `C[C@H](NC(=O)CCCCNC(=N)N)C(=O)N[C@@H](Cc1ccccc1)C(=O)N[C@@H](CCCNC(=N)N)C(=O)c1nc2ccccc2s1`, the results for the Activity result (in the data set with Calu-3; in [3]; in the data set on SARS-CoV-2 [5]) were “Non-toxic”, 8% and 14%, respectively. The result in the data set with SARS-CoV-2 [2] was Active. Besides, the IC50 in data set [4] worked out at 0.66 nM.

As for `CC(=O)N[C@@H](CCC(N)=O)C(=O)N[C@@H](Cc1ccccc1)C(=O)N[C@@H](CCCNC(=N)N)C(=O)c1nc2ccccc2[nH]1`, the outcome in the data set on SARS-CoV-2 [9] was Active.

Consider `N=C(N)NCCCCC(=O)N[C@@H](CCC(N)=O)C(=O)N[C@@H](CO)C(=O)N[C@@H](CCCNC(=N)N)C(=O)c1nc2ccccc2s1`, for which the figures for the Activity entry (with Calu-3; in data set [3]) were “Non-toxic” and 19%, respectively. The outcome in the data set with SARS-CoV-2 [2] was Active. The IC50 in data set [4] was found to be 3.2 nM.

In the case of `CC(=O)N[C@@H](CCC(N)=O)C(=O)N[C@@H](Cc1ccccc1)C(=O)N[C@@H](CCCNC(=N)N)C(=O)c1nccn1C`, the result with SARS-CoV-2 [9] was Active.

As for `CC(C)[C@H](NC(=O)[C@H](Cc1cscn1)NC(=O)CCc1ccccc1)C(=O)N[C@@H](CCCNC(=N)N)C(=O)c1nc2ccccc2s1`, the results for the Activity result (with Calu-3; in data set [3]; in the data set with SARS-CoV-2 [5]) were “Non-toxic”, 34% and 15%, respectively. Further, in the data set on SARS-CoV-2 [2], the result was Active. The IC50 in [4] was 3 nM.

Regarding `CCOC(=O)N[C@@H](CCCNC(=N)N)C(=O)N[C@@H](CCC(N)=O)C(=O)N[C@@H](Cc1ccccc1)C(=O)N[C@@H](CCCNC(=N)N)C(=O)c1nc2ccccc2s1`, the Activity result was “Non-toxic” in the data set with Calu-3, 3% in data set [3] and 17% with SARS-CoV-2 [5]. The values for the 50% effective concentration (EC50) with SARS-CoV-2 [6] and in the data set on SARS-CoV-2 [7] were 3.9 nM and 1.3 nM, respectively. Besides, the Ki at Procathepsin L amounted to 695 nM; in data set [10], 0.095 nM. Moreover, in the data set with SARS-CoV-2 [2], the result was Active. Also, the half-maximal inhibitory concentration (IC50) in [4] stood at 0.89 nM.

As to `CC(=O)N[C@@H](CCC(N)=O)C(=O)N[C@@H](Cc1ccccc1)C(=O)N[C@@H](CCCNC(=N)N)C(=O)CN1CCCCC1`, the outcome in the data set with SARS-CoV-2 [9] was Active.

Regarding `N=C(N)NCCC[C@H](NC(=O)OCc1ccccc1)C(=O)N[C@@H](CCC(N)=O)C(=O)N[C@@H](Cc1ccccc1)C(=O)N[C@@H](CCCNC(=N)N)C(=O)c1nc2ccccc2s1`, the values for the Activity entry (with Calu-3; in data set [3]; with SARS-CoV-2 [5]) were “Non-toxic”, 7% and 33%, respectively. In the data set on SARS-CoV-2 [2], the outcome was Active. Moreover, in data set [4], the 50% inhibitory concentration (IC50) is 1.4 nM.

Turning to `CN(C)C(=O)CC[C@H](NC(=O)CCCCNC(=N)N)C(=O)N[C@@H](Cc1ccccc1)C(=O)N[C@@H](CCCNC(=N)N)C(=O)c1nc2ccccc2s1`, the Activity entry with Calu-3 was “Non-toxic”; in data set [3], 16%; in the data set on SARS-CoV-2 [5], 18%. In addition, the outcome with SARS-CoV-2 [2] was Active. The IC50 in data set [4] is 0.62 nM.

Regarding `CN(C)C(=O)COC(=O)Cc1ccc(OC(=O)c2ccc(NC(=N)N)cc2)cc1` [CAMOSTAT], the values for the EC50 with SARS-CoV-2 [6] and with SARS-CoV-2 [7] were 201 nM and 7.5 nM, respectively. Moreover, the CC50 at 72 h in data set [8] came out at 110000 nM.

Turning to `COCCC(=O)N[C@@H](CCC(N)=O)C(=O)N[C@@H](Cc1ccccc1)C(=O)N[C@@H](CCCNC(=N)N)C(=O)c1nc2ccccc2s1`, the Activity entry with Calu-3 was “Non-toxic”; in [3] it was 2%; with SARS-CoV-2 [5] it was 17%. Further, the 50% effective concentration (EC50) in the data set on SARS-CoV-2 [6] was 4.1 nM; with SARS-CoV-2 [7], 1.5 nM. Besides, at Coagulation factor X, the Ki amounted to 102 nM. Besides, on Procathepsin L, the inhibition entry is “inactive”. In addition, the outcome in the data set on SARS-CoV-2 [2] was Active. The IC50 in [4] was found to be 0.59 nM.

As for `CC(=O)N[C@@H](CCC(N)=O)C(=O)N[C@@H](CC1CCCCC1)C(=O)N[C@@H](CCCNC(=N)N)C(=O)c1nc2ccccc2s1`, the Activity result in the data set on Calu-3 is “Non-toxic”; in [3] it was 18%; in the data set with SARS-CoV-2 [5] it was 13%. In addition, in the data set on SARS-CoV-2 [2], the outcome was Active. Also, in data set [4], the IC50 stood at 1.3 nM.
